pIC50: −log10 of the molar value.
What follows are compounds tested against T1, human Cot/Tpl2 kinase (Homo sapiens, UniProt P41279) (assay: Tpl2/Cot kinase assay: GST-MEK1 phosphorylation detected by ELISA (DELFIA Eu)). Conditions: Tpl2/Cot kinase, GST-MEK1 substrate, 50 uM ATP.
T1 construct: human Cot/Tpl2 kinase construct encoding residues 30-398; 6His (N); made in house; host or cells: Sf9 insect cells, baculovirus system (BD Biosciences)
Assay type: biochemical
Summary of the method: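 His-tagged human Tpl2 from Sf9 cells, Ni-affinity and size-exclusion purified (monomer). 0.4 nM Tpl2 with 35 nM GST-MEK1, 50 uM ATP, MOPS pH 7.2, 1% DMSO, 1 h at 30° C; EDTA stop. MEK1 Ser217/221 phosphorylation detected by anti-phospho-MEK1 and Eu-labelled secondary ELISA; IC50 fitted.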

T1 sequence (P41279 30-398): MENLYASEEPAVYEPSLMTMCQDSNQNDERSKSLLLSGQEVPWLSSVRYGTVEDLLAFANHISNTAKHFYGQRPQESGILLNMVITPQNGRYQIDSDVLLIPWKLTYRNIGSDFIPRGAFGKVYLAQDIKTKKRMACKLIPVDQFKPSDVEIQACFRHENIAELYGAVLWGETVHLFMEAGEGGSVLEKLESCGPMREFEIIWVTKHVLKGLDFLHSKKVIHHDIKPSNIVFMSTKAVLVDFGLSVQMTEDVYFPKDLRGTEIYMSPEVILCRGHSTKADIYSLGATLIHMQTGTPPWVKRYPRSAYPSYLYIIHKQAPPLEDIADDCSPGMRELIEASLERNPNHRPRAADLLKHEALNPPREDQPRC

| SMILES | pIC50 |
| --- | --- |
| N#Cc1cnc2c(Cl)cc(NCc3nc[nH]n3)cc2c1Nc1ccc(F)c(Cl)c1 [Example 666] | 7.00 |
| N#Cc1cnc2c(Br)cc(NCc3nc[nH]n3)cc2c1Nc1ccc(F)c(Cl)c1 [Example 667] | 6.96 |
| N#Cc1cnc2c(Br)cc(NCc3cncn3CCN3CCOCC3)cc2c1Nc1ccc(F)c(Cl)c1 [Example 668] | 6.80 |
| N#Cc1cnc2c(Br)cc(NCc3cn(CCN4CCOCC4)cn3)cc2c1Nc1ccc(F)c(Cl)c1 [Example 669] | 7.39 |
| N#Cc1cnc2c(Cl)cc(NCc3cn(CCN4CCOCC4)cn3)cc2c1Nc1ccc(F)c(Cl)c1 [Example 670] | 7.48 |
| N#Cc1cnc2c(Cl)cc(NCc3cncn3CCN3CCOCC3)cc2c1Nc1ccc(F)c(Cl)c1 [Example 671] | 7.21 |
| N#Cc1cnc2c(Br)cc(NCc3cn(CC(F)(F)F)nn3)cc2c1Nc1ccc(F)c(Cl)c1 [Example 673] | 7.00 |
| CN(CCn1cc(CN(Cc2cn(CCN(C)C(=O)OC(C)(C)C)nn2)c2cc(Br)c3ncc(C#N)c(Nc4ccc(F)c(Cl)c4)c3c2)nn1)C(=O)OC(C)(C)C [Example 677] | 5.33 |
| CN1CCC(Cn2cc(CN(C)c3cc(Br)c4ncc(C#N)c(Nc5ccc(F)c(Cl)c5)c4c3)nn2)CC1 [Example 679] | 6.54 |
| CN1CCC(n2cc(CN(C)c3cc(Br)c4ncc(C#N)c(Nc5ccc(F)c(Cl)c5)c4c3)nn2)CC1 [Example 681] | 7.66 |
| CSCCn1cc(CNc2cc(Br)c3ncc(C#N)c(Nc4ccc(F)c(Cl)c4)c3c2)nn1 [Example 682] | 7.09 |
| COCCCc1nc[nH]c1CNc1cc(Br)c2ncc(C#N)c(Nc3ccc(F)c(Cl)c3)c2c1 [Example 683] | 7.21 |
| CNCCn1cc(CNc2cc(Cl)c3ncc(C#N)c(Nc4ccc(F)c(Cl)c4)c3c2)nn1 [Example 685] | 7.54 |
| N#Cc1cnc2c(Cl)cc(NCc3cn(CCC4CCNCC4)nn3)cc2c1Nc1ccc(F)c(Cl)c1 [Example 692] | 6.89 |
| CC(C)(C)OC(=O)N1CCC(CCn2cc(CN(Cc3cn(CCC4CCN(C(=O)OC(C)(C)C)CC4)nn3)c3cc(Br)c4ncc(C#N)c(Nc5ccc(F)c(Cl)c5)c4c3)nn2)CC1 [Example 693] | < 5.52 |
| CS(=O)(=O)CCn1cc(CNc2cc(Br)c3ncc(C#N)c(Nc4ccc(F)c(Cl)c4)c3c2)nn1 [Example 694] | 7.04 |
| N#Cc1cnc2c(Br)cc(NCc3cnc4cnccn34)cc2c1Nc1ccc(F)c(Cl)c1 [Example 700] | 6.96 |
| N#Cc1cnc2c(Br)cc(NCc3cnc4ccccn34)cc2c1Nc1ccc(F)c(Cl)c1 [Example 701] | 6.55 |
| CS(=O)(=O)CCn1cnc(CNc2cc(Br)c3ncc(C#N)c(Nc4ccc(F)c(Cl)c4)c3c2)c1 [Example 702] | 7.37 |
| C[S+]([O-])Cn1cc(CNc2cc(Br)c3ncc(C#N)c(Nc4ccc(F)c(Cl)c4)c3c2)nn1 (stereo not drawn) [Example 703] | 6.92 |
| CS(=O)(=O)Cn1cc(CNc2cc(Br)c3ncc(C#N)c(Nc4ccc(F)c(Cl)c4)c3c2)nn1 [Example 704] | 7.48 |
| CSCn1cc(CNc2cc(Br)c3ncc(C#N)c(Nc4ccc(F)c(Cl)c4)c3c2)nn1 [Example 705] | 7.92 |
| N#Cc1cnc2c(Br)cc(NCc3cn(Cc4cccnc4)cn3)cc2c1Nc1ccc(F)c(Cl)c1 [Example 706] | 8.51 |

| SMILES | pIC50 |
| --- | --- |
| N#Cc1cnc2c(Br)cc(NCc3cc(C4CCNCC4)n[nH]3)cc2c1Nc1ccc(F)c(Cl)c1 [Example 707] | 6.10 |
| CN1CCCC1CCn1cnc(CNc2cc(Br)c3ncc(C#N)c(Nc4ccc(F)c(Cl)c4)c3c2)c1 (stereo not drawn) [Example 708] | 7.47 |
| CS(=O)(=O)N1CCC(n2cc(CNc3cc(Br)c4ncc(C#N)c(Nc5ccc(F)c(Cl)c5)c4c3)nn2)CC1 [Example 710] | 8.96 |
| N#Cc1cnc2c(Br)cc(NCc3cn(CCCN4CCCCC4)nn3)cc2c1Nc1ccc(F)c(Cl)c1 [Example 711] | 8.47 |
| N#Cc1cnc2c(Cl)cc(NCc3cn(CCCN4CCCCC4)nn3)cc2c1Nc1ccc(F)c(Cl)c1 [Example 712] | 8.96 |
| N#Cc1cnc2c(Br)cc(NCc3cn(CC4CCCNC4)nn3)cc2c1Nc1ccc(F)c(Cl)c1 (stereo not drawn) [Example 718] | 7.48 |
| N#Cc1cnc2c(Cl)cc(NCc3cn(CC4CCCNC4)nn3)cc2c1Nc1ccc(F)c(Cl)c1 (stereo not drawn) [Example 719] | 7.32 |
| N#Cc1cnc2c(Cl)cc(NCc3cn(CC4CCCN4)nn3)cc2c1Nc1ccc(F)c(Cl)c1 (stereo not drawn) [Example 721] | 8.04 |
| N#Cc1cnc2c(Br)cc(NCc3cn(CC4CCCN4)nn3)cc2c1Nc1ccc(F)c(Cl)c1 (stereo not drawn) [Example 722] | 8.04 |
| N#Cc1cnc2c(Br)cc(NCc3cc([C@@H]4CCCN4)n[nH]3)cc2c1Nc1ccc(F)c(Cl)c1 [Example 724] | 6.48 |
| N#Cc1cnc2c(Br)cc(NCc3cn(-c4ccncc4)cn3)cc2c1Nc1ccc(F)c(Cl)c1 [Example 725] | 7.64 |
| N#Cc1cnc2c(Cl)cc(NCc3cn(Cc4cccnc4)cn3)cc2c1Nc1ccc(F)c(Cl)c1 [Example 726] | 8.15 |
| N#Cc1cnc2c(Br)cc(NCc3cn(CCc4ccccn4)nn3)cc2c1Nc1ccc(F)c(Cl)c1 [Example 728] | 8.47 |
| N#Cc1cnc2c(Br)cc(NCc3cn(-c4ccncc4)nn3)cc2c1Nc1ccc(F)c(Cl)c1 [Example 729] | 8.26 |
| C=CCn1cc(CNc2cc(Br)c3ncc(C#N)c(Nc4ccc(F)c(Cl)c4)c3c2)nn1 [Example 732] | 7.70 |
| COCCn1cc(CNc2cc(Cl)c3ncc(C#N)c(Nc4ccc(F)c(Cl)c4)c3c2)nn1 [Example 733] | 7.70 |
| N#Cc1cnc2c(Cl)cc(NCc3cn(C4CCOCC4)nn3)cc2c1Nc1ccc(F)c(Cl)c1 [Example 734] | 7.85 |
| CN(C)CC(c1ccccc1)n1cc(CNc2cc(Br)c3ncc(C#N)c(Nc4ccc(F)c(Cl)c4)c3c2)nn1 (stereo not drawn) [Example 739] | 7.03 |
| CN(C)CC(c1ccccc1)n1cc(CNc2cc(Cl)c3ncc(C#N)c(Nc4ccc(F)c(Cl)c4)c3c2)nn1 (stereo not drawn) [Example 740] | 7.15 |
| N#Cc1cnc2c(Br)cc(NCc3cn(CCOCCOCCO)nn3)cc2c1Nc1ccc(F)c(Cl)c1 [Example 741] | 6.85 |
| N#Cc1cnc2c(Cl)cc(NCc3cn(CCOCCOCCO)nn3)cc2c1Nc1ccc(F)c(Cl)c1 [Example 742] | 7.04 |
| COCCOCCn1cc(CNc2cc(Br)c3ncc(C#N)c(Nc4ccc(F)c(Cl)c4)c3c2)nn1 [Example 743] | 7.00 |
| COCCOCCn1cc(CNc2cc(Cl)c3ncc(C#N)c(Nc4ccc(F)c(Cl)c4)c3c2)nn1 [Example 744] | 7.68 |

Results, then the compound that gave them:

| pIC50 | SMILES |
| --- | --- |
| 7.12 | CC(C)(C)OC(=O)N1CCC(CCn2cc(CNc3cc(Cl)c4ncc(C#N)c(Nc5ccc(F)c(Cl)c5)c4c3)nn2)CC1 [Example 674] |
| 6.89 | CC(C)(C)OC(=O)N1CCC(CCn2cc(CNc3cc(Br)c4ncc(C#N)c(Nc5ccc(F)c(Cl)c5)c4c3)nn2)CC1 [Example 675] |
| 7.32 | CN(CCn1cc(CNc2cc(Cl)c3ncc(C#N)c(Nc4ccc(F)c(Cl)c4)c3c2)nn1)C(=O)OC(C)(C)C [Example 676] |
| 7.17 | CN(CCn1cc(CNc2cc(Br)c3ncc(C#N)c(Nc4ccc(F)c(Cl)c4)c3c2)nn1)C(=O)OC(C)(C)C [Example 678] |
| 7.92 | CN1CCC(Cn2cc(CNc3cc(Br)c4ncc(C#N)c(Nc5ccc(F)c(Cl)c5)c4c3)nn2)CC1 [Example 680] |
| 7.42 | CNCCn1cc(CNc2cc(Br)c3ncc(C#N)c(Nc4ccc(F)c(Cl)c4)c3c2)nn1 [Example 684] |
| 7.55 | N#Cc1cnc2c(Br)cc(NCc3cn(CCO)nn3)cc2c1Nc1ccc(F)c(Cl)c1 [Example 686] |
| 7.05 | N#Cc1cnc2c(Br)cc(NCc3cn(CCC4CCNCC4)nn3)cc2c1Nc1ccc(F)c(Cl)c1 [Example 691] |
| 7.36 | CN1CCC(CCn2cc(CNc3cc(Br)c4ncc(C#N)c(Nc5ccc(F)c(Cl)c5)c4c3)nn2)CC1 [Example 695] |
| 8.77 | CN1CCC(CCn2cc(CNc3cc(Cl)c4ncc(C#N)c(Nc5ccc(F)c(Cl)c5)c4c3)nn2)CC1 [Example 696] |
| 7.74 | N#Cc1cnc2c(Br)cc(NCc3cn(CCCO)nn3)cc2c1Nc1ccc(F)c(Cl)c1 [Example 697] |
| 7.74 | COCCn1cc(CNc2cc(Br)c3ncc(C#N)c(Nc4ccc(F)c(Cl)c4)c3c2)nn1 [Example 698] |
| 7.28 | N#Cc1cnc2c(Br)cc(NCc3cn(CCS(=O)(=O)C4CCCC4)nn3)cc2c1Nc1ccc(F)c(Cl)c1 [Example 699] |
| 6.92 | CC(C)(C)OC(=O)N1CCCC(Cn2cc(CNc3cc(Br)c4ncc(C#N)c(Nc5ccc(F)c(Cl)c5)c4c3)nn2)C1 (stereo not drawn) [Example 713] |
| 6.60 | CC(C)(C)OC(=O)N1CCCC(Cn2cc(CNc3cc(Cl)c4ncc(C#N)c(Nc5ccc(F)c(Cl)c5)c4c3)nn2)C1 (stereo not drawn) [Example 714] |
| 6.72 | CC(C)(C)CN1CCC(n2cc(CNc3cc(Br)c4ncc(C#N)c(Nc5ccc(F)c(Cl)c5)c4c3)nn2)CC1 [Example 715] |
| 6.49 | CC(C)(C)OC(=O)N1CCCC1Cn1cc(CNc2cc(Cl)c3ncc(C#N)c(Nc4ccc(F)c(Cl)c4)c3c2)nn1 (stereo not drawn) [Example 716] |
| 6.57 | CC(C)(C)OC(=O)N1CCCC1Cn1cc(CNc2cc(Br)c3ncc(C#N)c(Nc4ccc(F)c(Cl)c4)c3c2)nn1 (stereo not drawn) [Example 717] |
| 8.21 | CC(=O)N1CCC(n2cc(CNc3cc(Br)c4ncc(C#N)c(Nc5ccc(F)c(Cl)c5)c4c3)nn2)CC1 [Example 720] |
| 7.40 | CCN1CCC(Cn2cc(CNc3cc(Br)c4ncc(C#N)c(Nc5ccc(F)c(Cl)c5)c4c3)nn2)CC1 [Example 735] |
| 7.54 | CC(C)N1CCC(Cn2cc(CNc3cc(Br)c4ncc(C#N)c(Nc5ccc(F)c(Cl)c5)c4c3)nn2)CC1 [Example 736] |
| 7.19 | CCN1CCC(CCn2cc(CNc3cc(Br)c4ncc(C#N)c(Nc5ccc(F)c(Cl)c5)c4c3)nn2)CC1 [Example 737] |
| 7.24 | CC(C)N1CCC(CCn2cc(CNc3cc(Br)c4ncc(C#N)c(Nc5ccc(F)c(Cl)c5)c4c3)nn2)CC1 [Example 738] |

From patent publication US20060264460A1 (Wyeth, priority 2005, published 2006)
